Results taken from patent publication US9365541B2, “Compounds for use in the treatment of parasitic diseases” (IRBM—SCIENCE PARK S.P.A., priority 2012, dated 2016).

Legend:
[1] = system: Plasmodium falciparum 3D7; experiment: P. falciparum growth inhibition assay (Pf-LDH); type: cell-based; settings: Plasmodium falciparum, Erythrocyte; P. falciparum 3D7 infected erythrocytes, 72 h incubation, PfLDH readout
Summary of the method: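 Compounds were tested against 72 h cultures of the 3D7 strain (0.25% parasitemia, 2% hematocrit, 37° C, low-oxygen gas). Parasite growth was quantified as lactate dehydrogenase activity via NBT reduction, absorbance 650 nm, after freezing and thawing.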

[2] = molecular target: T1, human HDAC1 (Homo sapiens, UniProt Q13547); experiment: Homo sapiens HDAC1 inhibition assay (Fluor-de-Lys, enzymatic); type: biochemical; settings: human HDAC enzymatic assay; read-out: hHDAC IC50
T1 construct: made in house; host or cells: HeLa (ATCC CCL-2), mammalian cells
T1 sequence (Q13547 whole entry): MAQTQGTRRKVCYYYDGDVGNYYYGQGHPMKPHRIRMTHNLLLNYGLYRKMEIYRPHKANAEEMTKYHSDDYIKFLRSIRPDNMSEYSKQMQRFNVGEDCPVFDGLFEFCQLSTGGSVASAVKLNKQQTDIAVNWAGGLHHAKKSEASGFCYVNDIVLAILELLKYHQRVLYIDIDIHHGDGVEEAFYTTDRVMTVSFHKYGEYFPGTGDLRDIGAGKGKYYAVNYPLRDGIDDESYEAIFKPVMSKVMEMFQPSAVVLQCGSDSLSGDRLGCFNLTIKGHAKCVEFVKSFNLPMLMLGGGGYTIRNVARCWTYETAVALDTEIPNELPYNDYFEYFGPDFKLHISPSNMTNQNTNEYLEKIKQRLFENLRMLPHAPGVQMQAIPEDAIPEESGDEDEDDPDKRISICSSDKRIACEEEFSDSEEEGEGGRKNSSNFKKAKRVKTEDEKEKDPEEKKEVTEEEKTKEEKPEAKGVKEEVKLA
Summary of the method: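 Fluorogenic deacetylation read-out: trypsin developer, supplemented with 2 μM final TSA as stop, releases fluorophore from deacetylated substrate.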

SMILES | EC50 [1] | IC50 [2]
CNC(=O)CCCCC[C@H](NC(=O)c1cc(C)n(-c2ccccc2)n1)c1ncc(-c2ccc3ccccc3c2)[nH]1 [Entry 82, (S)-5-methyl-N-(7-(methylamino)-1-(5-(naphthalen-2-yl)-1H-imidazol-2-yl)-7-oxoheptyl)-1-phenyl-1H-pyrazole-3-carboxamide] | > 5 µM | > 5 µM
CNC(=O)CCCCC[C@H](NC(=O)c1nnc(C)s1)c1ncc(-c2ccc3ccccc3c2)[nH]1 [Entry 84, (S)-5-methyl-N-(7-(methylamino)-1-(5-(naphthalen-2-yl)-1H-imidazol-2-yl)-7-oxoheptyl)-1,3,4-thiadiazole-2-carboxamide] | > 5 µM | 1 to 5 µM
CNC(=O)CCCCC[C@H](NC(=O)c1cccc2nccnc12)c1ncc(-c2ccc3ccccc3c2)[nH]1 [Entry 88, (S)-N-(7-(methylamino)-1-(5-(naphthalen-2-yl)-1H-imidazol-2-yl)-7-oxo-heptyl)quinoxaline-5-carboxamide] | > 5 µM | > 5 µM
CNC(=O)CCCCC[C@H](NC(=O)C1CCC1(F)F)c1ncc(-c2ccc(-c3ccn(C)n3)cc2)[nH]1 (stereo partly drawn) [Entry 91, 2,2-difluoro-N-((S)-1-(5-(4-(1-methyl-1H-pyrazol-3-yl)phenyl)-1H-imidazol-2-yl)-7-(methylamino)-7-oxo-heptyl)cyclobutane-carboxamide] | > 5 µM | > 5 µM
CNC(=O)CCCCC[C@H](NC(=O)CC1=CSC2=NCCCN12)c1ncc(-c2ccc(-c3ccn(C)n3)cc2)[nH]1 [Entry 92, (S)-7-(2-(6,7-dihydro-5H-thiazolo[3,2-a]pyrimidin-3-yl)acetamido)-N-methyl-7-(5-(4-(1-methyl-1H-pyrazol-3-yl)phenyl)-1H-imidazol-2-yl)heptanamide] | > 5 µM | 1 to 5 µM
CNC(=O)CCCCC[C@H](NC(=O)C1CN(C)C1)c1ncc(-c2cc3ccccc3nc2OC)[nH]1 [Entry 98, (S)-N-(1-(5-(2-methoxyquinolin-3-yl)-1H-imidazol-2-yl)-7-(methylamino)-7-oxoheptyl)-1-methylazetidine-3-carboxamide] | 1 to 5 µM | 1 to 5 µM
CNC(=O)CCCCC[C@H](NC(=O)CCN1CCCCC1)c1ncc(-c2cc3ccccc3nc2OC)[nH]1 [Entry 99] | 1 to 5 µM | < 1 µM
CNC(=O)CCCCC[C@H](NC(=O)C12CC3CC(CC(C3)C1)C2)c1ncc(-c2ccc(C(F)(F)F)cc2)[nH]1 [Entry 100] | 1 to 5 µM | > 5 µM
CNC(=O)CCCCC[C@H](NC(=O)CCN1CCCCC1)c1ncc(-c2ccc(C(F)(F)F)cc2)[nH]1 [Entry 101, (S)-N-methyl-7-(3-(piperidin-1-yl)propanamido)-7-(5-(4-(trifluoro-methyl)phenyl)-1H-imidazol-2-yl)heptanamide] | 1 to 5 µM | > 5 µM
CNC(=O)CCCCC[C@H](NC(=O)c1nc[nH]n1)c1ncc(-c2cc3ccccc3nc2OC)[nH]1 [Entry 102, (S)-N-(1-(5-(2-methoxyquinolin-3-yl)-1H-imidazol-2-yl)-7-(methylamino)-7-oxoheptyl)-1H-1,2,4-triazole-3-carboxamide] | > 5 µM | > 5 µM
CNC(=O)CCCCC[C@H](NC(=O)C(C)n1cccn1)c1ncc(-c2cc3ccccc3nc2OC)[nH]1 (stereo partly drawn) [Entry 103] | 1 to 5 µM | > 5 µM
CNC(=O)CCCCC[C@H](NC(=O)[C@@H]1CCCN1C)c1ncc(-c2cc3ccccc3nc2OC)[nH]1 [Entry 104, (S)-N-((S)-1-(5-(2-methoxyquinolin-3-yl)-1H-imidazol-2-yl)-7-(methylamino)-7-oxoheptyl)-1-methylpyrrolidine-2-carboxamide] | > 5 µM | > 5 µM
CNC(=O)CCCCC[C@H](NC(=O)Cc1ccccn1)c1ncc(-c2cc3ccccc3nc2OC)[nH]1 [Entry 106] | > 5 µM | 1 to 5 µM

Now from value to compound:

EC50 [1] | IC50 [2] | SMILES
1 to 5 µM | 1 to 5 µM | CNC(=O)CCCCC[C@H](NC(=O)c1ccc(-n2cccc2)nc1)c1ncc(-c2ccc3ccccc3c2)[nH]1 [Entry 83, (S)-N-(7-(methylamino)-1-(5-(naphthalen-2-yl)-1H-imidazol-2-yl)-7-oxoheptyl)-6-(1H-pyrrol-1-yl)nicotinamide]
1 to 5 µM | 1 to 5 µM | CNC(=O)CCCCC[C@H](NC(=O)C(C)n1cccn1)c1ncc(-c2ccc3ccccc3c2)[nH]1 (stereo partly drawn) [Entry 85, (7S)-7-(2-(1H-pyrazol-1-yl)propanamido)-N-methyl-7-(5-(naphthalen-2-yl)-1H-imidazol-2-yl)heptanamide]
1 to 5 µM | 1 to 5 µM | CNC(=O)CCCCC[C@H](NC(=O)c1cc(-c2ccco2)n[nH]1)c1ncc(-c2ccc3ccccc3c2)[nH]1 [Entry 86, (S)-3-(furan-2-yl)-N-(7-(methylamino)-1-(5-(naphthalen-2-yl)-1H-imidazol-2-yl)-7-oxoheptyl)-1H-pyrazole-5-carboxamide]
1 to 5 µM | 1 to 5 µM | CNC(=O)CCCCC[C@H](NC(=O)c1ccccc1-n1cnnn1)c1ncc(-c2ccc3ccccc3c2)[nH]1 [Entry 87, (S)-N-(7-(methylamino)-1-(5-(naphthalen-2-yl)-1H-imidazol-2-yl)-7-oxoheptyl)-2-(1H-tetrazol-1-yl)benzamide]
1 to 5 µM | 1 to 5 µM | CNC(=O)CCCCC[C@H](NC(=O)Cn1cncn1)c1ncc(-c2ccc3ccncc3c2)[nH]1 [Entry 89, (S)-7-(2-(1H-1,2,4-triazol-1-yl)acetamido)-7-(5-(isoquinolin-7-yl)-1H-imidazol-2-yl)-N-methylheptanamide]
< 1 µM | < 1 µM | CNC(=O)CCCCC[C@H](NC(=O)c1cnn(C(C)C)c1)c1ncc(-c2ccc3ccncc3c2)[nH]1 [Entry 90, (S)-1-isopropyl-N-(1-(5-(isoquinolin-7-yl)-1H-imidazol-2-yl)-7-(methylamino)-7-oxoheptyl)-1H-pyrazole-4-carboxamide]
< 1 µM | < 1 µM | CNC(=O)CCCCC[C@H](NC(=O)OCc1ccccc1)c1ncc(-c2ccc3ccncc3c2)[nH]1 [Entry 93, (S)-benzyl (1-(5-(isoquinolin-7-yl)-1H-imidazol-2-yl)-7-(methylamino)-7-oxoheptyl)carbamate]
1 to 5 µM | 1 to 5 µM | CCc1nc2ccccc2n1CCC(=O)N[C@@H](CCCCCC(=O)NC)c1nnc(-c2ccc3ccccc3c2)o1 [Entry 94, (S)-7-(3-(2-ethyl-1H-benzo[d]imidazol-1-yl)propanamido)-N-methyl-7-(5-(naphthalen-2-yl)-1,3,4-oxadiazol-2-yl)heptanamide]
< 1 µM | < 1 µM | CNC(=O)CCCCC[C@H](NC(=O)c1cncs1)c1ncc(-c2ccc3ccccc3c2)[nH]1 [Entry 95, (S)-N-(7-(methylamino)-1-(5-(naphthalen-2-yl)-1H-imidazol-2-yl)-7-oxo-heptyl)thiazole-5-carboxamide]
< 1 µM | < 1 µM | CNC(=O)CCCCC[C@H](NC(=O)c1cncs1)c1ncc(-c2cc3ccccc3cc2OC)[nH]1 [Entry 97, (S)-N-(1-(5-(3-methoxynaphthalen-2-yl)-1H-imidazol-2-yl)-7-(methylamino)-7-oxoheptyl)thiazole-5-carboxamide]
< 1 µM | < 1 µM | CNC(=O)CCCCC[C@H](NC(=O)c1cncs1)c1ncc(-c2ccc3cc(OC)ncc3c2)[nH]1 [Entry 105, (S)-N-(1-(5-(3-methoxyisoquinolin-7-yl)-1H-imidazol-2-yl)-7-(methylamino)-7-oxoheptyl)thiazole-5-carboxamide]
